Reference: US20230038480A1, “SYSTEM FOR PRODUCITON OF HIGH YIELD OF RECOMBINANT PROTEINS” (UNIVERSITY OF MARYLAND, COLLEGE PARK, priority 2021, published 2023)

Legend:
[1] = system: E. coli pAHL-GMCSF; assay: AHL-induced porin formation and release of dsRedExpressII from E. coli pAHL-GMCSF; format: cell-based, Escherichia coli; conditions: about
Protocol: Protein secretion analysis. The target proteins DsRedExpress2 and GMCSF were analyzed. The supernatants of sample aliquots were recovered after centrifugation (6000 g, 2 min) to separate bacteria and subdivided fluorescence analysis (stored chilled) or immunoassaying (stored frozen). The relative fluorescence intensity of samples was measured using a BioTek Synergy platereader to determine DsRedExpress2 levels; additional quantification to correlate fluorescence to protein concentration was performed using a Bioanalyzer 2100 (Agilent Technologies, Santa Clara, Calif.). The His-tagged GMCSF peptide was quantified using a His Tag ELISA Detection Kit (GenScript) according to the provided protocol and 5-10 fold dilutions of frozen samples.

[2] = system: E. coli
Protocol: To visualize electrode-immobilized bacteria, cells were fluorescently stained using a Live/Dead Baclight Bacterial Viability Kit (Molecular Probes). Syto9 and propidium iodide (PI), were used alone or in combination. In each case, the reagents were diluted between 667 and 1000-fold in PBS, then applied to the cell-covered surfaces and incubated in the dark for 45 min, undisturbed, to stain immobilized cells. The, chips were the rinsed and stored in PBS. […] To quantify viability of cells bound to electrode chips, Syto9 and PI were applied in combination, followed by the fixative solution, with PBS rinsing in between steps. In this case, both green and red fluorescence images were captured. […] The fluorescence images were converted to 8-bit, consistently thresholded, and the cell areas were calculated using ImageJ (NIH). […] After a PBS rinse, cell fluorescence was read on the flow cytometer or imaged by the fluorescence microscope.
To quantify cell growth in the presence of peroxide, E. coli T7Express cells with the pOxyRS-sfGFP-laa and pBla-GBP3-AIDA plasmids were cultured overnight as described above. […] A Bioscreen C machine (Growth Curves USA) was set up at 37° C., high shaking, with 400 μl per well, and recorded OD600 measurements every 15 minutes, using a Growth Rates program to calculate lag and doubling time. […]

[3] = system: OxyR / PoxyS promoter

CCCCCCCCCC(=O)CC(=O)N[C@H]1CCOC1=O [AHL, N-3-oxo-dodecanoyl-L-Homoserine lactone]
inducer concentration in solution [1]: 100-500 nM of AHL

OO [peroxide, hydrogen peroxide]
peroxide tolerated with negligible effect on cell viability [2]: up to 100 μM
benign induction range ([2]; in agreement with previous reports): 0 to 100 µM
induction threshold required to achieve saturated protein expression [3]: 25 µM
